According to publication PMC6937593, “Anti-metastatic Inhibitors of Lysyl Oxidase (LOX): Design and Structure–Activity Relationships” (Journal of Medicinal Chemistry, 2019):
Several values for one entry are separate records, joined by “and”; a condition that tells them apart may be missing. Equal entries are not always repeated. Structures can show the parent of a compound that is named as a salt. Where two headings read alike, the source gives them in different places.

Assays:
MLM stability assay = type: in vitro ADME, mouse; conditions: percentage of compound remaining after 30 min; 10 μM
Description: Mouse liver microsomes (BALB/c) were purchased from Tebu-bio, and the assay was performed by methods previously described.[19] Inhibitors at 10 μM concentration incubated with the microsomes were assessed at 0, 15, and 30 min. Control samples containing no microsomes and no cofactors were also assessed at 0 and 30 min. Samples were extracted by protein precipitation and centrifugation for 20 min in a refrigerated centrifuge (4 °C) at 3700 rpm. The supernatant was analyzed by LCMS/MS for % metabolized over time.

In vivo PK in mice = experiment: In vivo PK in mice; parameters: species or system mouse; conditions: mouse plasma, single oral gavage dose 50 mg/kg
Description: Female BALB/c or CD1 mice (Charles River Laboratories) at 6 weeks of age were used for the PK analyses. The mice were dosed orally by gavage (50 mg/kg in dimethyl sulfoxide (DMSO)/water 1:19 v/v; n = 21) or intravenously in the tail vein (10 mg/kg in DMSO/Tween20/saline 10:1:89 v/v/v; n = 24). […] Three mice were used per time point per route. They were placed under halothane or isoflurane anesthesia, and blood for plasma preparation was taken by terminal cardiac puncture into heparinized syringes. Plasma samples were snap-frozen in liquid nitrogen and then stored at −80 °C prior to analysis.

LOX = biological target: T1, LOX (Sus scrofa, UniProt P45845); experiment: LOX enzyme activity assay (HRP-coupled fluorescent, cadaverine substrate); type: biochemical, pig; conditions: for fold more potent than HTS hit 2a (LOX IC50): vs 2a;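 for all read-outs here: LOX isolated from porcine skin, nine-point dilution series starting at 100 µM, 20 min preincubation with enzyme, BAPN serving as positive control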
T1 construct: LOX enzyme was extracted from pig skin by the method of Shackleton and Hulmes; from tissue; host or cells: pig skin
T1 sequence (P45845 1-249): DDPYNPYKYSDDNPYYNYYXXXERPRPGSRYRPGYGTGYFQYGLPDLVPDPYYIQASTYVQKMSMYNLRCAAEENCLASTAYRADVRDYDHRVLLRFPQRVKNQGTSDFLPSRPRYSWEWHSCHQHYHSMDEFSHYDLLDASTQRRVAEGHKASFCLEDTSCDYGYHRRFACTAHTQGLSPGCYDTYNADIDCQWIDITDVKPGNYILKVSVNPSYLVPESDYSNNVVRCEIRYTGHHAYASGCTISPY
Description: LOX enzyme was extracted from pig skin by the method of Shackleton and Hulmes.[24] LOX catalytic activity was determined using a horseradish peroxidase (HRP)-coupled fluorescent assay previously described,[19] with cadaverine hydrochloride as a substrate, BAPN as positive control, and a preincubation time of 20 min with nine dilutions from a top concentration of 100 μM.

[1] = n ≥ 2, n = 2: individual values, n > 2: geometric mean [95% CI], 20 min preincubation, read-out: LOX IC50

CC(C)(C)Oc1cc(S(C)(=O)=O)cc(S(=O)(=O)c2ccc(CN)s2)c1 [9b, (5-((3-(tert-Butoxy)-5-(methylsulfonyl)phenyl)sulfonyl)thiophen-2-yl)methanamine]
MLM stability (%) (MLM stability assay): 67%
AUC(PO) (In vivo PK in mice): 2.3 µM·h
Cmax (In vivo PK in mice): 6300 nM

Cl.Cl.Cn1cc(-c2cc(S(=O)(=O)c3ccc(CN)s3)ccc2S(C)(=O)=O)cn1 [9j, (5-((3-(1-Methyl-1H-pyrazol-4-yl)-4-(methylsulfonyl)phenyl)sulfonyl)thiophen-2-yl)methanamine Dihydrochloride]
MLM stability (%) (MLM stability assay): 90%
AUC(PO) (In vivo PK in mice): 2.8 µM·h
Cmax (In vivo PK in mice): 9600 nM

N#Cc1ccc(S(=O)(=O)c2ccccc2)s1 [6c, 5-(Phenylsulfonyl)thiophene-2-carbonitrile]
IC50 (LOX; [1]): > 100 µM

NCc1sccc1S(=O)(=O)c1ccc2ccccc2c1 [7a, (3-(Naphthalen-2-ylsulfonyl)thiophen-2-yl)methanamine]
LOX inhibition (in words) (LOX): no inhibitory activity
IC50 (LOX; [1]): > 100 µM

CS(=O)(=O)c1ccc(S(=O)(=O)c2ccc(CN)s2)cc1-c1ccccc1 [9k, (5-((6-(Methylsulfonyl)-[1,1′-biphenyl]-3-yl)sulfonyl)thiophen-2-yl)methanamine]
MLM stability (%) (MLM stability assay): 41%
AUC(PO) (In vivo PK in mice): 1.4 µM·h
Cmax (In vivo PK in mice): 1600 nM

CS(=O)(=O)N1CCCN(S(=O)(=O)c2ccc(CN)s2)CC1 [2m, (5-(4-(Methylsulfonyl)-1,4-diazepan-1-ylsulfonyl)thiophen-2-yl)methanamine]
MLM stability (%) (MLM stability assay): 37%
IC50 (LOX; [1]): 0.93 µM

CN(C)S(=O)(=O)c1ccc(CN)s1 [2b, 5-(Aminomethyl)-N,N-dimethylthiophene-2-sulfonamide]
IC50 (LOX; [1]): 70 µM and 72 µM

Cc1cc(CN)sc1S(=O)(=O)N1CCc2ccccc21 [5f, (5-(Indolin-1-ylsulfonyl)-4-methylthiophen-2-yl)methanamine]
IC50 (LOX; [1]): 12 µM and 13 µM

NCc1ccc(S(=O)(=O)N2CCCC2c2ccccc2)s1 (stereo not drawn) [2f, (5-(2-Phenylpyrrolidin-1-ylsulfonyl)thiophen-2-yl)methanamine]
IC50 (LOX; [1]): 3.8 µM

CS(=O)(=O)c1ccc(-c2ccc(CN)s2)cc1 [4e, (5-(4-(Methylsulfonyl)phenyl)thiophen-2-yl)methanamine Hydrochloride]
IC50 (LOX; [1]): 13 µM

N=C(N)c1ccc(S(=O)(=O)c2ccccc2)s1 [6d, 5-(Phenylsulfonyl)thiophene-2-carboximidamide Hydrochloride]
IC50 (LOX; [1]): > 100 µM

CC(N)c1ccc(S(=O)(=O)c2ccccc2)s1 (stereo not drawn) [6b, 1-(5-(Phenylsulfonyl)thiophen-2-yl)ethanamine]
IC50 (LOX; [1]): > 100 µM

NCc1ccc(Sc2ccccc2)s1 [4b, (5-(Phenylthio)thiophen-2-yl)methanamine Hydrochloride]
IC50 (LOX; [1]): 14 µM and 27 µM

NCc1ccc(C(=O)NCc2ccccc2)s1 [4d, 5-(Aminomethyl)-N-benzylthiophene-2-carboxamide]
IC50 (LOX; [1]): 20 µM and 25 µM

NC(=O)c1ccc(S(=O)(=O)c2ccccc2)s1 [6e, 5-(Phenylsulfonyl)thiophene-2-carboxamide]
IC50 (LOX; [1]): > 100 µM

CCNC(=O)N1CCCN(S(=O)(=O)c2ccc(CN)s2)CC1 [2l, 4-(5-(Aminomethyl)thiophen-2-ylsulfonyl)-N-ethyl-1,4-diazepane-1-carboxamide]
IC50 (LOX; [1]): 2.1 µM

CS(=O)(=O)c1ccc(S(=O)(=O)c2ccc(CN)s2)cc1 [3i, (5-(4-(Methylsulfonyl)phenylsulfonyl)thiophen-2-yl)methanamine]
MLM stability (%) (MLM stability assay): 67%

CN1CCCN(S(=O)(=O)c2ccc(CN)s2)CC1 [2k, (5-(4-Methyl-1,4-diazepan-1-ylsulfonyl)thiophen-2-yl)methanamine]
IC50 (LOX; [1]): 3.1 µM

NCc1ccc(S(=O)(=O)c2ccc3ccccc3c2)s1 [3g, (5-(Naphthalen-2-ylsulfonyl)thiophen-2-yl)methanamine]
MLM stability (%) (MLM stability assay): 100%
AUC(PO) (In vivo PK in mice): 4.2 µM·h
Cmax (In vivo PK in mice): 15000 nM

CNCc1ccc(S(=O)(=O)c2ccccc2)s1 [6a, N-Methyl-1-(5-(phenylsulfonyl)thiophen-2-yl)methanamine Hydrochloride]
IC50 (LOX; [1]): > 100 µM

NCc1ccc(S(=O)(=O)c2cccc(S(=O)(=O)N3CCC[C@H]3CO)c2)s1 [8e, (S)-(1-((3-((5-(Aminomethyl)thiophen-2-yl)sulfonyl)phenyl)sulfonyl)pyrrolidin-2-yl)methanol]
MLM stability (%) (MLM stability assay): 63%
AUC(PO) (In vivo PK in mice): 0.46 µM·h
Cmax (In vivo PK in mice): 1500 nM

NCc1cscc1S(=O)(=O)c1ccc2ccccc2c1 [7b, (4-(Naphthalen-2-ylsulfonyl)thiophen-3-yl)methanamine]
LOX inhibition (in words) (LOX): no inhibitory activity
IC50 (LOX; [1]): > 100 µM

Cl.Cl.NCc1ccc(S(=O)(=O)Cc2ccccc2)nc1 [5a, (6-(Benzylsulfonyl)pyridin-3-yl)methanamine Dihydrochloride]
IC50 (LOX; [1]): 25 µM
fold weaker than aminomethylenethiophene counterpart 5b (LOX) (LOX; vs 5b): ~10 fold

NCc1ccc(S(=O)(=O)N2CCC[C@H]2C(N)=O)s1 [2d, (S)-1-(5-(Aminomethyl)thiophen-2-ylsulfonyl)pyrrolidine-2-carboxamide]
IC50 (LOX; [1]): 11 µM and 13 µM

CC(=O)NCCS(=O)(=O)c1ccc(S(=O)(=O)c2ccc(CN)s2)cc1.Cl [8j, N-(2-((4-((5-(Aminomethyl)thiophen-2-yl)sulfonyl)phenyl)sulfonyl)ethyl)-acetamide Hydrochloride]
MLM stability (%) (MLM stability assay): 91%
AUC(PO) (In vivo PK in mice): 0.36 µM·h
Cmax (In vivo PK in mice): 380 nM

CCNS(=O)(=O)c1ccc(CN)s1 [2c, 5-(Aminomethyl)-N-ethylthiophene-2-sulfonamide]
IC50 (LOX; [1]): 27 µM and 31 µM

NCc1ccc(S(=O)(=O)N2CCC[C@H]2CO)s1 [2e, (S)-(1-(5-(Aminomethyl)thiophen-2-ylsulfonyl)pyrrolidin-2-yl)methanol]
IC50 (LOX; [1]): 3.1 µM and 3.3 µM

NCc1ccc(S(=O)(=O)N2CCCc3ccccc32)s1 [2h, (5-(3,4-Dihydroquinolin-1(2H)-ylsulfonyl)thiophen-2-yl)methanamine]
IC50 (LOX; [1]): 2.5 µM and 2.7 µM

NCc1ccc(S(=O)(=O)N2CCOCC2)s1 [2i, (5-(Morpholinosulfonyl)thiophen-2-yl)methanamine]
IC50 (LOX; [1]): 20 µM and 25 µM

NCc1ccc(S(=O)(=O)NCc2ccccc2)s1 [4c, 5-(Aminomethyl)-N-benzylthiophene-2-sulfonamide]
IC50 (LOX; [1]): 15 µM

NCc1ccc(S(=O)(=O)c2cccc(S(=O)(=O)N3CCCC3)c2)s1 [8d, (5-((3-(Pyrrolidin-1-ylsulfonyl)phenyl)sulfonyl)thiophen-2-yl)methanamine]
MLM stability (%) (MLM stability assay): 59%
AUC(PO) (In vivo PK in mice): 0.22 µM·h
Cmax (In vivo PK in mice): 830 nM

NCc1ccc(C(=O)NCc2ccccc2)o1 [5e, 5-(Aminomethyl)-N-benzylfuran-2-carboxamide]
IC50 (LOX; [1]): 40 µM and 45 µM

NCc1ccc(S(=O)(=O)N2CCCCC2)s1 [2a, (5-(Piperidin-1-ylsulfonyl)thiophen-2-yl)methanamine]
IC50 (LOX; high-throughput screen hit, read-out: mean IC50 (LOX, HTS hit)): 19 µM
IC50 (LOX; [1]): 17 µM and 21 µM

NCc1ccc(S(=O)(=O)N2CCc3ccccc32)s1 [2g, (5-(Indolin-1-ylsulfonyl)thiophen-2-yl)methanamine]
IC50 (LOX; [1]): 1.9 µM
fold more potent than HTS hit 2a (LOX IC50) (LOX): ~10 fold

Cl.Cl.NCc1ccc(S(=O)(=O)N2CCCNCC2)s1 [2j, (5-(1,4-Diazepan-1-ylsulfonyl)thiophen-2-yl)methanamine Dihydrochloride]
IC50 (LOX; [1]): 9.4 µM and 12.7 µM
fold more potent than HTS hit 2a (LOX IC50) (LOX): ~2 fold

O=S(=O)(c1ccc2ccccc2c1)c1ccc(/C=N/O)s1 [6f, 5-(Naphthalen-2-ylsulfonyl)thiophene-2-carbaldehyde Oxime]
IC50 (LOX; [1]): > 100 µM
